Laboratory results: US20200024278A1, “COMPOSITION COMPRISING ANTIBIOTIC COMPOUND AND AN HETEROCYCLIC COMPOUND AND THEIR USE IN PREVENTING OR TREATING BACTERIAL INFECTIONS” (MUTABILIS, priority 2016, published 2020)

What was measured:
Assay in all cases: MIC, broth microdilution (CLSI), substance alone or ATB combined with compound at 4 or 8 μg/mL
[1] = system: SPN 49619; type: cell-based, S. pneumoniae; conditions: SPN 49619
How it was run: (§1)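 Broth microdilution; ca-MHB; 5·10^5 CFU/mL; 35° C, 16-20 h; compound alone or fixed 4/8 μg/mL with antibiotic series; endpoint = no visible growth.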

[2] = system: KPN UFR42; type: cell-based, K. pneumoniae; conditions: KPN UFR42
How it was run: as §1

[3] = system: KPN 6299; type: cell-based, K. pneumoniae
How it was run: as §1

[4] = system: KPN BAA-1898; type: cell-based, K. pneumoniae; conditions: KPN BAA-1898
How it was run: as §1

[5] = system: PAE 105250; type: cell-based, P. aeruginosa; conditions: PAE 105250
How it was run: as §1

[6] = system: PAE UFR90; type: cell-based, P. aeruginosa; conditions: PAE UFR90
How it was run: as §1

Question: Which “MIC ATB alone” value ([1]; antibiotic alone) does the source give for `CN(C)c1cc(NC(=O)CNC(C)(C)C)c(O)c2c1C[C@H]1C[C@H]3[C@H](N(C)C)C(O)=C(C(N)=O)C(=O)[C@@]3(O)C(O)=C1C2=O` [TGC] here?
Answer: 0.125 µg/mL

Question: And the “MIC ATB combined with Example 1 @8 μg/ml” value ([1]; with Example 1 @8 μg/ml)?
Answer: 0.125 µg/mL

Question: And the “MIC ATB combined with Example 1 @8 μg/ml” value ([1]; with Example 1 at 8 μg/ml)?
Answer: 0.125 µg/mL

Question: And the “MIC ATB combined with Example 7 @8 μgml” value ([1]; with Example 7 at 8 μg/ml)?
Answer: 0.063 µg/mL

Question: And the “MIC ATB combined with Example 9 @4 μg/ml” value ([1]; with Example 9 @4 μg/ml)?
Answer: <0.031 µg/mL

Question: What about the “MIC ATB combined with Example 9 @4 μg/ml” value ([1]; with Example 9 at 4 μg/ml) of the same compound?
Answer: <0.031 µg/mL

Question: And the “MIC ATB combined with Example 11 @8 μg/ml” value ([1]; with Example 11 at 8 μg/ml)?
Answer: <=0.031 μg/mL

Question: What about the “MIC ATB combined with Example 12 @8 μg/ml” value ([1]; with Example 12 at 8 μg/ml) of the same compound?
Answer: <0.031 µg/mL

Question: What about the “MIC ATB combined with Example 13 @8 μg/ml” value ([1]; with Example 13 at 8 μg/ml) of the same compound?
Answer: 0.063 µg/mL

Question: And the “MIC ATB combined with Example 14 @8 μg/ml” value ([1]; with Example 14 at 8 μg/ml)?
Answer: <0.031 µg/mL

Question: What about the “MIC ATB combined with Example 15 @4 μgml” value ([1]; with Example 15 at 4 μg/ml) of the same compound?
Answer: <=0.031 μg/mL

Question: And the “MIC ATB combined with Example 16 @4 μg/ml” value ([1]; with Example 16 at 4 μg/ml)?
Answer: <0.031 µg/mL

Question: What about the “MIC ATB alone” value ([2]; antibiotic alone) of the same compound?
Answer: 2 µg/mL

Question: And the “MIC ATB combined with Example 1 @8 μg/ml” value ([2]; with Example 1 @8 μg/ml)?
Answer: 2 µg/mL

Question: What about the “MIC ATB combined with Example 1 @8 μg/ml” value ([2]; with Example 1 at 8 μg/ml) of the same compound?
Answer: 2 µg/mL

Question: And the “MIC ATB combined with Example 7 @8 μgml” value ([2]; with Example 7 at 8 μg/ml)?
Answer: 0.5 µg/mL

Question: And the “MIC ATB combined with Example 9 @4 μg/ml” value ([2]; with Example 9 @4 μg/ml)?
Answer: 0.25 µg/mL

Question: What about the “MIC ATB combined with Example 9 @4 μg/ml” value ([2]; with Example 9 at 4 μg/ml) of the same compound?
Answer: 0.25 µg/mL

Question: What about the “MIC ATB combined with Example 11 @8 μg/ml” value ([2]; with Example 11 at 8 μg/ml) of the same compound?
Answer: <0.031 µg/mL

Question: What about the “MIC ATB combined with Example 12 @8 μg/ml” value ([2]; with Example 12 at 8 μg/ml) of the same compound?
Answer: <0.031 µg/mL

Question: What about the “MIC ATB combined with Example 13 @8 μg/ml” value ([2]; with Example 13 at 8 μg/ml) of the same compound?
Answer: 2 µg/mL

Question: And the “MIC ATB combined with Example 14 @8 μg/ml” value ([2]; with Example 14 at 8 μg/ml)?
Answer: <0.031 µg/mL

Question: And the “MIC ATB combined with Example 15 @4 μgml” value ([2]; with Example 15 at 4 μg/ml)?
Answer: <0.031 µg/mL

Question: What about the “MIC ATB combined with Example 16 @4 μg/ml” value ([2]; with Example 16 at 4 μg/ml) of the same compound?
Answer: <0.031 µg/mL

Question: What about the “MIC ATB alone” value ([3]; antibiotic alone) of the same compound?
Answer: 1 µg/mL

Question: And the “MIC ATB combined with Example 1 @8 μg/ml” value ([3]; with Example 1 @8 μg/ml)?
Answer: 1 µg/mL

Question: And the “MIC ATB combined with Example 1 @8 μg/ml” value ([3]; with Example 1 at 8 μg/ml)?
Answer: 1 µg/mL

Question: What about the “MIC ATB combined with Example 7 @8 μgml” value ([3]; with Example 7 at 8 μg/ml) of the same compound?
Answer: 1 µg/mL

Question: And the “MIC ATB combined with Example 9 @4 μg/ml” value ([3]; with Example 9 @4 μg/ml)?
Answer: 0.063 µg/mL

Question: What about the “MIC ATB combined with Example 9 @4 μg/ml” value ([3]; with Example 9 at 4 μg/ml) of the same compound?
Answer: 0.063 µg/mL

Question: What about the “MIC ATB combined with Example 11 @8 μg/ml” value ([3]; with Example 11 at 8 μg/ml) of the same compound?
Answer: <0.031 µg/mL

Question: What about the “MIC ATB combined with Example 12 @8 μg/ml” value ([3]; with Example 12 at 8 μg/ml) of the same compound?
Answer: <0.031 µg/mL

Question: And the “MIC ATB combined with Example 13 @8 μg/ml” value ([3]; with Example 13 at 8 μg/ml)?
Answer: 0.5 µg/mL

Question: What about the “MIC ATB combined with Example 14 @8 μg/ml” value ([3]; with Example 14 at 8 μg/ml) of the same compound?
Answer: <0.031 µg/mL

Question: What about the “MIC ATB combined with Example 15 @4 μgml” value ([3]; with Example 15 at 4 μg/ml) of the same compound?
Answer: <0.031 µg/mL

Question: And the “MIC ATB combined with Example 16 @4 μg/ml” value ([3]; with Example 16 at 4 μg/ml)?
Answer: <0.031 µg/mL

Question: What about the “MIC ATB alone” value ([4]; antibiotic alone) of the same compound?
Answer: 1 µg/mL

Question: And the “MIC ATB combined with Example 1 @8 μg/ml” value ([4]; with Example 1 @8 μg/ml)?
Answer: 1 µg/mL

Question: And the “MIC ATB combined with Example 1 @8 μg/ml” value ([4]; with Example 1 at 8 μg/ml)?
Answer: 1 µg/mL

Question: What about the “MIC ATB combined with Example 7 @8 μgml” value ([4]; with Example 7 at 8 μg/ml) of the same compound?
Answer: 1 µg/mL

Question: And the “MIC ATB combined with Example 9 @4 μg/ml” value ([4]; with Example 9 @4 μg/ml)?
Answer: <0.031 µg/mL

Question: And the “MIC ATB combined with Example 9 @4 μg/ml” value ([4]; with Example 9 at 4 μg/ml)?
Answer: <0.031 µg/mL

Question: What about the “MIC ATB combined with Example 11 @8 μg/ml” value ([4]; with Example 11 at 8 μg/ml) of the same compound?
Answer: <0.031 µg/mL

Question: And the “MIC ATB combined with Example 12 @8 μg/ml” value ([4]; with Example 12 at 8 μg/ml)?
Answer: <0.031 µg/mL

Question: What about the “MIC ATB combined with Example 13 @8 μg/ml” value ([4]; with Example 13 at 8 μg/ml) of the same compound?
Answer: 1 µg/mL

Question: And the “MIC ATB combined with Example 14 @8 μg/ml” value ([4]; with Example 14 at 8 μg/ml)?
Answer: <0.031 µg/mL

Question: What about the “MIC ATB combined with Example 15 @4 μgml” value ([4]; with Example 15 at 4 μg/ml) of the same compound?
Answer: <0.031 µg/mL

Question: What about the “MIC ATB combined with Example 16 @4 μg/ml” value ([4]; with Example 16 at 4 μg/ml) of the same compound?
Answer: <0.031 µg/mL

Question: What about the “MIC ATB alone” value ([5]; antibiotic alone) of the same compound?
Answer: 8 µg/mL

Question: And the “MIC ATB combined with Example 1 @8 μg/ml” value ([5]; with Example 1 @8 μg/ml)?
Answer: 0.5 µg/mL

Question: What about the “MIC ATB combined with Example 1 @8 μg/ml” value ([5]; with Example 1 at 8 μg/ml) of the same compound?
Answer: 0.5 µg/mL

Question: What about the “MIC ATB combined with Example 7 @8 μgml” value ([5]; with Example 7 at 8 μg/ml) of the same compound?
Answer: 32 µg/mL

Question: What about the “MIC ATB combined with Example 9 @4 μg/ml” value ([5]; with Example 9 @4 μg/ml) of the same compound?
Answer: 8 µg/mL

Question: And the “MIC ATB combined with Example 9 @4 μg/ml” value ([5]; with Example 9 at 4 μg/ml)?
Answer: 8 µg/mL

Question: And the “MIC ATB combined with Example 11 @8 μg/ml” value ([5]; with Example 11 at 8 μg/ml)?
Answer: 8 µg/mL

Question: What about the “MIC ATB combined with Example 12 @8 μg/ml” value ([5]; with Example 12 at 8 μg/ml) of the same compound?
Answer: 8 µg/mL

Question: And the “MIC ATB combined with Example 13 @8 μg/ml” value ([5]; with Example 13 at 8 μg/ml)?
Answer: 8 µg/mL

Question: What about the “MIC ATB combined with Example 14 @8 μg/ml” value ([5]; with Example 14 at 8 μg/ml) of the same compound?
Answer: 8 µg/mL

Question: What about the “MIC ATB combined with Example 15 @4 μgml” value ([5]; with Example 15 at 4 μg/ml) of the same compound?
Answer: 8 µg/mL

Question: What about the “MIC ATB combined with Example 16 @4 μg/ml” value ([5]; with Example 16 at 4 μg/ml) of the same compound?
Answer: 8 µg/mL

Question: And the “MIC ATB alone” value ([6]; antibiotic alone)?
Answer: 16 µg/mL

Question: And the “MIC ATB combined with Example 1 @8 μg/ml” value ([6]; with Example 1 @8 μg/ml)?
Answer: <0.031 µg/mL

Question: And the “MIC ATB combined with Example 1 @8 μg/ml” value ([6]; with Example 1 at 8 μg/ml)?
Answer: <0.031 µg/mL

Question: And the “MIC ATB combined with Example 7 @8 μgml” value ([6]; with Example 7 at 8 μg/ml)?
Answer: 32 µg/mL

Question: What about the “MIC ATB combined with Example 9 @4 μg/ml” value ([6]; with Example 9 @4 μg/ml) of the same compound?
Answer: 16 µg/mL

Question: And the “MIC ATB combined with Example 9 @4 μg/ml” value ([6]; with Example 9 at 4 μg/ml)?
Answer: 16 µg/mL
